{"source": "patent US20160143910A1", "about": "“METHODS OF TREATING CANCER AND PREVENTING CANCER DRUG RESISTANCE” (GENENTECH, INC., priority 2013, published 2016)", "key": {"[1]": {"tested_on": "SW480 cells", "assay": "DTP model of CRC cell line SW480 with 5-fluorouracil and SN-38", "type": "cell-based", "experimental": "A model for resistance to standard-of-care chemotherapy for colorectal cancer (CRC) was developed by treating CRC cell line SW480 with a combination of 5-fluorouracil and the irinotecan active metabolite SN-38 in a ratio of their relative IC50 values (33 μM 5-FU and 6 ηM SN-38) continuously for 16 days, followed by drug withdrawal. The cells progressively die during this treatment period. The remaining DTP cells constitute approximately 8% of the initial cell population and appear large and non-dividing. After drug withdrawal, cells continue to die for several more days, but then re-initiate proliferation and expand to form DTEP colonies by about 2 weeks in the absence of drugs."}, "[2]": {"tested_on": "PC9 cells", "assay": "Drug tolerant persister (DTP) assay, PC9 with Tarceva (erlotinib)", "type": "cell-based, human", "settings": "stained 30 days after", "source_text": "[…] Viable cells remaining attached on the dish at the end of the third round of relevant drug treatment were considered to be DTPs, and were collected for analysis.\n(§1) The structures of CPI-382 and CPI-383 are provided below."}, "[3]": {"tested_on": "Colo829", "assay": "Cell viability assay (cell titer Glo), Colo829", "type": "cell-based", "settings": "Homo sapiens, COLO-829, 96 h; Colo829, 4 days of incubation, 8 doses", "experimental": "(§2) One goal was to identify a cell line that would be sensitive to vemurafenib and amenable to DTP formation. For this, a set of 18 melanoma cell lines were tested by standard cell viability assay using cell titer Glo readout after 4 days of incubation with 8 different doses of vemurafenib. The results identified 3 melanoma cell lines (A375, Colo829 and HT144) with GI50's below 600 nM. All 3 of these cell lines were b raf mutant. After experiments with all these cell lines, Colo-829 was selected as the preferred cell line for DTP establishment.\n(§3) 1.1 Identifying melanoma cell lines sensitive to Vemurafenib • Day 0: 1000 cells/well were plated in 100 μl total volume in a 96 well flat bottom plate. • Day 1: The cells were treated with vemurafenib. The highest concentration in the assay was 20 μM and was diluted 3 fold down with the lowest concentration being 9 nM. • Day 5: 100 μl of cell titer glo was added to each well and the plates read on Envision. The data was plotted using graphpad prism. 1.2 DTP establishment in melanoma cell lines • Day 0: Cells (4.5×10^6 cells/P150 dishes) were plated, 4 plates/cell line. • Day 2: All the cell lines were 60-80% confluent. […] The cells in these plates were counted and ⅛th the numbers were replated in 2 new P150 dishes. […] The cells were counted and the percentage of cells remaining on the Vemurafenib treated dish vs the control dish were identified. […]"}, "[4]": {"tested_on": "HT144", "assay": "Cell viability assay (cell titer Glo), HT144", "type": "cell-based", "settings": "Homo sapiens, HT-144, 96 h; HT144, 4 days of incubation, 8 doses", "experimental": "as §2, §3"}, "[5]": {"tested_on": "A375", "assay": "Cell viability assay (cell titer Glo), A375", "type": "cell-based", "settings": "Homo sapiens, A-375, 96 h; A375, 4 days of incubation, 8 doses", "experimental": "as §2, §3"}, "[6]": {"tested_on": "HCC1954", "assay": "Drug tolerant persister (DTP) assay, HCC1954", "type": "cell-based", "settings": "HCC1954 (breast cancer); in combination with the recited cancer therapy agent", "experimental": "(§4) Drug-sensitive cells were treated with relevant drug as described herein at concentrations exceeding 100 times the established IC50 values, for three rounds, with each treatment lasting 72 hours. Viable cells remaining attached on the dish at the end of the third round of relevant drug treatment were considered to be DTPs, and were collected for analysis.\nas §1"}, "[7]": {"tested_on": "H441 cells", "assay": "Drug tolerant persister (DTP) assay, H441", "type": "cell-based", "settings": "in combination with the recited cancer therapy agent", "experimental": "Specifically for carboplatin and paclitaxel DTPs, Cells were plated and grown to 60-70% confluency then treated with Carboplatin (5.38 uM) and Paclitaxel (1.25 uM) for 5 cycles of 24 hours on 48 hours off drug. DTPs were collected and analyzed 1 week after the final dose of chemotherapy.\nas §1"}, "[8]": {"tested_on": "SKBR3", "assay": "Drug tolerant persister (DTP) assay, SKBR3", "type": "cell-based", "settings": "in combination with the recited cancer therapy agent", "experimental": "as §4, §1"}, "[9]": {"tested_on": "H3K4me3", "assay": "H3K4me3 MSD ELISA in H441", "type": "cell-based", "settings": "H441 (NSCLC)", "experimental": "(§5) Cells were rinsed with PBS and MSD Buffer AT (10 mM HEPES, pH 7.9, 5 mM MgCl2, 0.25M sucrose, Benzonase (1:10000), 1% Triton X-100 supplemented with fresh 1× Protease Inhibitor cocktail and 1 mM PMSF/AEBSF) was added. Cells were lysed for 30 minutes and then 10 uL 5M NaCl was added and allowed to lyse on ice for another 15 minutes. Lysates were rinse with 150 uL ice-cold NO Salt NO detergent buffer (20 mM Tris pH 7.5, 1 mM EDTA, 1 mM EGTA, supplemented with fresh 1× Protease Inhibitor cocktail and 1 mM PMSF).\n(§6) MSD plates (Catalog #L15XA-3) were then coated with Capture Antibody Anti-histone (Millipore Catalog # MAB3422) for H3K4me3: 2 ug/mL final concentration and/or plates testing for H3: 1 ug/mL final concentration. MSD plates were then blocked with 5% Blocker A (MSD Catalog #R93AA-2). Lysates to MSD plates were subsequently transferred, sealed and incubated with shaking at RT for 2:30 hours and then incubated with detection antibody in 1% Blocker A in TBST for 30 min (anti-Histone H3 (#4499 from Cell Signaling) at 0.125 ug/mL and/or anti-K4Me3 (#9751 from Cell Signaling) at 1 ug/mL). Sulfo-tag rabbit antibody (MSD Catalog# R32AB-1) in 1% Blocker A in TBST was added and incubated for 1 h at RT. […] 1× Read Buffer (MSD Catalog #R92TD-3) was added and read on MSD SECTOR® Imager 2400. Data was analyzed data using MACRO template provided using samples treated with DMSO as 0% or Min. […]"}, "[10]": {"tested_on": "PC9 cells", "assay": "Cell number with KDM5 antagonist alone, PC9", "type": "cell-based, human", "settings": "after 96 hours in drug, concentrations below 50 uM", "experimental": "(§7) 3×10^4 cells were plated in each well of a 12-well cluster dish. 24 hours after plating, media was removed and replaced with media containing drugs. Fresh media was replaced every 2 days until untreated cells reached confluence. Media was then removed, cells were washed with Phosphate Buffered Saline (PBS), and then fixed for 15 min with 4% formaldehyde in PBS. Cells were then washed with PBS and stained with the fluorescent nucleic acid stain, Syto60 (1 nM in PBS; Molecular Probes) for 15 min. Dye was removed, cell monolayers were washed with PBS, and fluorescence quantitation was carried out at 700 nm with an Odyssey Infrared Imager (Li-Cor Biosciences)."}, "[11]": {"tested_on": "SKBR3", "assay": "Cell number with KDM5 antagonist alone, SKBR3", "type": "cell-based", "settings": "after 96 hours in drug, concentrations below 25 uM", "experimental": "as §7"}, "[12]": {"tested_on": "H3K4me3", "assay": "H3K4me3 MSD ELISA in H596", "type": "cell-based", "settings": "H596 (lung epithelial adenosquamous carcinoma)", "experimental": "as §5, §6"}, "[13]": {"tested_on": "H3K4me3", "assay": "H3K4me3 MSD ELISA in SKBR3", "type": "cell-based", "settings": "SKBR3 (breast cancer)", "experimental": "as §5, §6"}, "[14]": {"tested_on": "PC9 cells", "assay": "Gamma irradiation of PC9 cells after KDM5 inhibitor pretreatment", "type": "cell-based, human", "experimental": "For Gamma irradiation the cells were treated for 5 days with inhibitors replated at 500,000 cells with the inhibitor. After cell attachment (approximately 8 hours), the cells were irradiated, and cells were counted 5 days after irradiation."}, "[15]": {"tested_on": "H3K4me3", "assay": "H3K4me3 MSD ELISA in PC9", "type": "cell-based, human", "settings": "PC9 (NSCLC)", "experimental": "as §5, §6"}, "[16]": {"settings": "nuc-RED PC9, various concentrations for 5 days prior to 1 uM Tarceva (erlotinib)"}}, "data": [{"compound": "Nc1ncn([C@@H]2O[C@H](CO)[C@@H](O)[C@H]2O)c(=O)n1", "note": "[5-azacytidine]", "values": [{"measurement": "DTP survival", "setting": "[1]; 0.2 μM", "value": "does not affect DTP survival"}]}, {"compound": "O=c1[nH]c(Oc2cnn(Cc3ccccc3)c2)nc2cnccc12", "note": "[CPI-382]", "values": [{"measurement": "development of drug tolerant persisters", "setting": "[2]; [16]", "value": "capable of reducing the development of drug tolerant persisters"}]}, {"compound": "O=c1[nH]c(Oc2cnn(Cc3ccccc3)c2)nc2ncccc12", "note": "[CPI-383]", "values": [{"measurement": "development of drug tolerant persisters", "setting": "[2]; [16]", "value": "no significant effect"}]}, {"compound": "CC(/C=C/C(=O)NO)=C\\[C@@H](C)C(=O)c1ccc(N(C)C)cc1", "note": "[Trichostatin A]", "values": [{"measurement": "DTP survival", "setting": "[1]; 20 ηM", "value": "does not affect DTP survival"}]}, {"compound": "CCCS(=O)(=O)Nc1ccc(F)c(C(=O)c2c[nH]c3ncc(-c4ccc(Cl)cc4)cc23)c1F", "note": "[vemurafenib, Vemurafenib]", "values": [{"measurement": "GI50", "setting": "[3]", "value": "< 0.6", "unit": "µM"}, {"measurement": "GI50", "setting": "[4]", "value": "< 0.6", "unit": "µM"}, {"measurement": "GI50", "setting": "[5]", "value": "< 0.6", "unit": "µM"}]}, {"compound": "CPI-455", "values": [{"measurement": "development of drug tolerant persisters", "setting": "[6]", "value": "capable of inhibiting the development of drug tolerant persisters"}, {"measurement": "development of drug tolerant persisters", "setting": "[7]", "value": "capable of inhibiting the development of drug tolerant persisters"}, {"measurement": "development of drug tolerant persisters", "setting": "[8]", "value": "capable of inhibiting the development of drug tolerant persisters"}, {"measurement": "development of drug tolerant persisters", "setting": "[2]; PC9, in combination with cancer therapy agent, 25 uM for 5 days prior to 1uM Tarceva", "value": "capable of inhibiting the development of drug tolerant persisters"}, {"measurement": "H3K4me3", "setting": "[9]", "value": "increase H3K4me3"}, {"measurement": "cell number", "setting": "[10]", "value": "did not substantially affect cell number"}, {"measurement": "cell number", "setting": "[11]", "value": "did not substantially affect cell number"}, {"measurement": "H3K4me3", "setting": "[12]", "value": "increase H3K4me3"}, {"measurement": "H3K4me3", "setting": "[13]", "value": "increase H3K4me3"}, {"measurement": "number of cells following γ-irradiation", "setting": "[14]; PC9, pretreatment for 5 days, compared to inactive controls", "value": "decreases the number of cells following γ-irradiation"}, {"measurement": "development of drug tolerant persisters", "setting": "[14]; in combination with radiation therapy", "value": "capable of inhibiting the development of drug tolerant persisters"}, {"measurement": "H3K4me3", "setting": "[15]", "value": "increase H3K4me3"}]}]}
